Test system: 874868-142-R-J2-PDC complex spheroids, growth % test/control
Assay: Anticancer human tumor 874868-142-R-J2-PDC patient-derived head and neck squamous carcinoma cell line growth inhibition [CLK]
Details: for IC50: curve of first compound; for viability, T/C: stronger effect = lower value
Outline: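 Multi-cell-type spheroids combined patient-derived tumor cells with HUVEC endothelial cells and human mesenchymal stem cells. Paired agents were dosed in half-log steps down from about clinical Cmax, or from 10 microM where Cmax was unknown.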
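Also: spheroids exposed to the compounds for 7 days.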
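For viability, T/C in this document: 100% = DMSO vehicle control viability.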

Q: How did the IC50 (second compound 0.0316 µM) turn out when `CC(C)CC(NC(=O)C(Cc1ccccc1)NC(=O)c1cnccn1)B(O)O` (centres undefined) + CNC(=O)c1ccc(Nc2nc(OC3CCCC3)c3c(-c4ccc5nc(C)oc5c4)c[nH]c3n2)c(OC)c1 was run?
A: 4.48 nM

Q: And the IC50 (second compound 0.1 µM)?
A: 4.69 nM

Q: What about the IC50 (second compound 0.316 µM) of the same molecule?
A: 4.24 nM

Q: What about the IC50 (second compound 1 µM) of the same molecule?
A: < 0.949 nM

Q: What about the IC50 (second compound 3.16 µM) of the same molecule?
A: < 0.949 nM

Q: What about the IC50 (second compound 10 µM) of the same molecule?
A: < 0.949 nM

Q: And the viability, T/C (second compound 0.0316 µM, first compound 0.000949 µM)?
A: 96.8%

Q: What about the viability, T/C (second compound 0.0316 µM, first compound 0.003 µM) of the same molecule?
A: 76.4%

Q: What about the viability, T/C (second compound 0.0316 µM, first compound 0.00949 µM) of the same molecule?
A: 0.57%

Q: And the viability, T/C (second compound 0.0316 µM, first compound 0.03 µM)?
A: 0.3%

Q: What about the viability, T/C (second compound 0.0316 µM, first compound 0.0949 µM) of the same molecule?
A: 0.21%

Q: What about the viability, T/C (second compound 0.0316 µM, first compound 0.3 µM) of the same molecule?
A: 0.23%

Q: What about the viability, T/C (second compound 0.1 µM, first compound 0.000949 µM) of the same molecule?
A: 89.5%

Q: What about the viability, T/C (second compound 0.1 µM, first compound 0.003 µM) of the same molecule?
A: 80.7%

Q: And the viability, T/C (second compound 0.1 µM, first compound 0.00949 µM)?
A: 1.32%

Q: What about the viability, T/C (second compound 0.1 µM, first compound 0.03 µM) of the same molecule?
A: 0.44%

Q: And the viability, T/C (second compound 0.1 µM, first compound 0.0949 µM)?
A: 0.2%

Q: And the viability, T/C (second compound 0.1 µM, first compound 0.3 µM)?
A: 4.13%

Q: And the viability, T/C (second compound 0.316 µM, first compound 0.000949 µM)?
A: 66.8%

Q: What about the viability, T/C (second compound 0.316 µM, first compound 0.003 µM) of the same molecule?
A: 70.8%

Q: And the viability, T/C (second compound 0.316 µM, first compound 0.00949 µM)?
A: 6.3%

Q: And the viability, T/C (second compound 0.316 µM, first compound 0.03 µM)?
A: 0.22%

Q: And the viability, T/C (second compound 0.316 µM, first compound 0.0949 µM)?
A: 0.26%

Q: What about the viability, T/C (second compound 0.316 µM, first compound 0.3 µM) of the same molecule?
A: 5.41%

Q: And the viability, T/C (second compound 1 µM, first compound 0.000949 µM)?
A: 47.7%

Q: What about the viability, T/C (second compound 1 µM, first compound 0.003 µM) of the same molecule?
A: 31.9%

Q: What about the viability, T/C (second compound 1 µM, first compound 0.00949 µM) of the same molecule?
A: 0.47%

Q: And the viability, T/C (second compound 1 µM, first compound 0.03 µM)?
A: 0.24%

Q: And the viability, T/C (second compound 1 µM, first compound 0.0949 µM)?
A: 5.77%

Q: And the viability, T/C (second compound 1 µM, first compound 0.3 µM)?
A: 17.3%

Q: What about the viability, T/C (second compound 3.16 µM, first compound 0.000949 µM) of the same molecule?
A: 45.3%

Q: What about the viability, T/C (second compound 3.16 µM, first compound 0.003 µM) of the same molecule?
A: 21.6%

Q: And the viability, T/C (second compound 3.16 µM, first compound 0.00949 µM)?
A: 0.47%

Q: What about the viability, T/C (second compound 3.16 µM, first compound 0.03 µM) of the same molecule?
A: 0.19%

Q: And the viability, T/C (second compound 3.16 µM, first compound 0.0949 µM)?
A: 7.41%

Q: And the viability, T/C (second compound 3.16 µM, first compound 0.3 µM)?
A: 10.4%

Q: And the viability, T/C (second compound 10 µM, first compound 0.000949 µM)?
A: 38.6%

Q: What about the viability, T/C (second compound 10 µM, first compound 0.003 µM) of the same molecule?
A: 20%

Q: And the viability, T/C (second compound 10 µM, first compound 0.00949 µM)?
A: 3.06%

Q: What about the viability, T/C (second compound 10 µM, first compound 0.03 µM) of the same molecule?
A: 0.36%

Q: What about the viability, T/C (second compound 10 µM, first compound 0.0949 µM) of the same molecule?
A: 3.69%

Q: And the viability, T/C (second compound 10 µM, first compound 0.3 µM)?
A: 6.49%

Q: How did the IC50 (second compound 0.0316 µM) turn out when `O=C(c1cc(Cc2n[nH]c(=O)c3ccccc23)ccc1F)N1CCN(C(=O)C2CC2)CC1` + CNC(=O)c1ccc(Nc2nc(OC3CCCC3)c3c(-c4ccc5nc(C)oc5c4)c[nH]c3n2)c(OC)c1 was run?
A: > 10000 nM

Q: And the IC50 (second compound 0.1 µM)?
A: > 10000 nM

Q: What about the IC50 (second compound 0.316 µM) of the same molecule?
A: > 10000 nM

Q: What about the IC50 (second compound 1 µM) of the same molecule?
A: < 31.6 nM

Q: And the IC50 (second compound 3.16 µM)?
A: < 31.6 nM

Q: What about the IC50 (second compound 10 µM) of the same molecule?
A: < 31.6 nM

Q: What about the viability, T/C (second compound 0.0316 µM, first compound 0.0316 µM) of the same molecule?
A: 86.5%

Q: And the viability, T/C (second compound 0.0316 µM, first compound 0.1 µM)?
A: 90.7%

Q: What about the viability, T/C (second compound 0.0316 µM, first compound 0.316 µM) of the same molecule?
A: 115%

Q: What about the viability, T/C (second compound 0.0316 µM, first compound 1 µM) of the same molecule?
A: 81.4%

Q: And the viability, T/C (second compound 0.0316 µM, first compound 3.16 µM)?
A: 91.8%

Q: What about the viability, T/C (second compound 0.0316 µM, first compound 10 µM) of the same molecule?
A: 75.6%

Q: And the viability, T/C (second compound 0.1 µM, first compound 0.0316 µM)?
A: 98.9%

Q: What about the viability, T/C (second compound 0.1 µM, first compound 0.1 µM) of the same molecule?
A: 76.5%

Q: What about the viability, T/C (second compound 0.1 µM, first compound 0.316 µM) of the same molecule?
A: 93.7%

Q: What about the viability, T/C (second compound 0.1 µM, first compound 1 µM) of the same molecule?
A: 87%

Q: And the viability, T/C (second compound 0.1 µM, first compound 3.16 µM)?
A: 70.7%

Q: And the viability, T/C (second compound 0.1 µM, first compound 10 µM)?
A: 73.4%

Q: What about the viability, T/C (second compound 0.316 µM, first compound 0.0316 µM) of the same molecule?
A: 54%

Q: What about the viability, T/C (second compound 0.316 µM, first compound 0.1 µM) of the same molecule?
A: 54.5%

Q: What about the viability, T/C (second compound 0.316 µM, first compound 0.316 µM) of the same molecule?
A: 60.8%

Q: What about the viability, T/C (second compound 0.316 µM, first compound 1 µM) of the same molecule?
A: 45.9%

Q: And the viability, T/C (second compound 0.316 µM, first compound 3.16 µM)?
A: 61%

Q: What about the viability, T/C (second compound 0.316 µM, first compound 10 µM) of the same molecule?
A: 55.6%

Q: And the viability, T/C (second compound 1 µM, first compound 0.0316 µM)?
A: 42.2%

Q: And the viability, T/C (second compound 1 µM, first compound 0.1 µM)?
A: 40.9%

Q: And the viability, T/C (second compound 1 µM, first compound 0.316 µM)?
A: 42.3%

Q: And the viability, T/C (second compound 1 µM, first compound 1 µM)?
A: 41.1%

Q: What about the viability, T/C (second compound 1 µM, first compound 3.16 µM) of the same molecule?
A: 39.7%

Q: And the viability, T/C (second compound 1 µM, first compound 10 µM)?
A: 41.4%

Q: What about the viability, T/C (second compound 3.16 µM, first compound 0.0316 µM) of the same molecule?
A: 41.4%

Q: What about the viability, T/C (second compound 3.16 µM, first compound 0.1 µM) of the same molecule?
A: 48.8%

Q: What about the viability, T/C (second compound 3.16 µM, first compound 0.316 µM) of the same molecule?
A: 48.8%

Q: And the viability, T/C (second compound 3.16 µM, first compound 1 µM)?
A: 41%

Q: And the viability, T/C (second compound 3.16 µM, first compound 3.16 µM)?
A: 50.3%

Q: What about the viability, T/C (second compound 3.16 µM, first compound 10 µM) of the same molecule?
A: 46.2%

Q: What about the viability, T/C (second compound 10 µM, first compound 0.0316 µM) of the same molecule?
A: 38.3%

Q: What about the viability, T/C (second compound 10 µM, first compound 0.1 µM) of the same molecule?
A: 48.4%

Q: And the viability, T/C (second compound 10 µM, first compound 0.316 µM)?
A: 42.7%

Q: And the viability, T/C (second compound 10 µM, first compound 1 µM)?
A: 41.8%

Q: What about the viability, T/C (second compound 10 µM, first compound 3.16 µM) of the same molecule?
A: 43.3%

Q: What about the viability, T/C (second compound 10 µM, first compound 10 µM) of the same molecule?
A: 42.2%

Source: PubChem BioAssay AID2060601 (Molecular Pharmacology Branch, DTP, NCI, 2025)
